Experimental data: US20020049157A1, “Use of proteasome inhibitors for treating cancer, inflammation, autoimmune disease, graft rejection and septic shock” (priority 1998, published 2002)

Columns and labels:
[1] = tested on: Tonsillar T cells; experiment: T cell viability by trypan blue exclusion; type: cell-based, human; conditions: for decrease of viability compared with cells without LAC: 10 μM LAC, medium or PHA
Experimental: (§1) Tonsillar T cells (A, B, and D) and Jurkat cells (C and E) were treated with LAC (10 μM for T cells and 6 μM for Jurkat cells). LAC was added at the beginning of the culture or 40 h after T cell activation as indicated. The cells were harvested at the time points as shown. They were evaluated for their viability with trypan blue exclusion (A, B, and C), and for their mode of cell death according to DNA fragmentation (D and E).
The viability of T cells and Jurkat cells after LAC-treatment was first evaluated with trypan blue exclusion. Resting T cells (T cells in medium) or PHA-stimulated T cells were cultured with 10 μM LAC (LAC added at the beginning of the culture).
There was a tendency that the activated T cells were more susceptible to LAC than the resting T cells. This became more evident when LAC was added to T cells 40 h after the PHA activation (FIG. 2B). […] On the other hand, the viability of the resting T cells in medium had only a small decrease (from 98% of the control to 87% of the LAC-treated) after 24 h of LAC presence.

[2] = tested on: Tonsillar T cells; experiment: DNA fragmentation (DNA laddering) in T cells; type: cell-based, human
Experimental: as §1
We next employed DNA laddering to study the mode of cell death caused by LAC, and the result of this experiment also reflected the degree of cell death after different treatments. […] After 24 h of LAC treatment, the ladders became less discrete, and this probably reflected further DNA breakdown.
The assay was performed according to a protocol described by Liu et al (Liu et al., 1997, Cell. 89:175) with some modifications. Briefly, 2-6 million cells were re-suspended in 50 μl PBS followed by 300 μl lysis buffer (100 mM Tris-HCl, pH 8.0, 5 mM EDTA, 0.2 M NaCl. 0.2% w/v SDS, and 0.2 mg/ml proteinase K). After overnight incubation at 37° C., 350 μl of 3M NaCl was added to the mixture and cell debris was removed by centrifugation at 13000 g for 20 min at room temperature. DNA in the supernatant was precipitated with an equal volume of 100% ethanol. […]

[3] = tested on: cyclin A; experiment: Immunoblotting of cyclin A level in T cells; type: cell-based, human; conditions: PHA plus hydroxyurea block, released; LAC added at release
Experimental: Tonsillar T cells were stimulated with PHA (2 μg/ml) for 40 h in the presence of hydroxyurea (1 mM), and these cells were blocked at the G1/S boundary (G1 block). The synchronization was released by washing out hydroxyurea, and the cells were recultured in medium containing 2 μg/ml PHA in the absence or presence of LAC ([…], added once at the time of the release). The cells were harvested at 6 h and 22 h post the G1/S block. The cell lysates (40 μg/sample) were resolved in 10% SDS-PAGE, and transferred to PVDF membranes. The membranes were hybridized with rabbit-anti-Cyclin E or anticyclin A antisera followed by ^125I-protein A. The Cyclin E level (FIG. 8A) and cyclin A level (FIG. 8B) of representative experiments are shown. Similar results were obtained in a total of three independent experiments.
The G1/S phase synchronized T cells represented activated cells, and prolonged exposure to LAC would cause significant cell death.
Tonsillar T cells were cultured in the presence of 2 μg/ml PHA and 1 mM hydroxyurea for 40 h. The cells thus treated were synchronized at the G1/S phase. […]
Immunoblotting was employed to evaluate the levels of Cyclin E, cyclin A, p21^Cip1 and p27^Kip1. […] The cleared lysates were quantitated for protein concentrations. […] The signals on the membrane were detected by [^125I]-protein A followed by autoradiography.

[4] = tested on: human peripheral blood mononuclear cells; experiment: Aggregate formation of PHA-stimulated PBMC; type: cell-based; conditions: 2 μg/ml PHA plus 10 μM lactacystin; 24 h
Text: Cell-cell interaction is essential in antigen presentation and in T cell's help to T and B cells. The adhesion molecules are necessary to establish the cell-cell interaction. Blocking the adhesion molecules ICAM-1 and LFA-1 is known to inhibit immune responses and to suppress graft rejection. […] Therefore, inhibition of the proteasome activity will be a useful way to control undesirable immune responses during graft rejection, autoimmune diseases, and inflammation.

[5] = tested on: nitric oxide synthase; experiment: Northern blot of nitric oxide synthase expression in macrophages; type: cell-based, mouse; conditions: 2 μg/ml LPS
Experimental: Nitric oxide synthase expression was measured with Northern blot analysis.
BALB/c mice were injected i.p. with 3 ml of 3% thioglycollate broth. Three days later, peritoneal exudate macrophages of the mice were harvested and washed at 170 g for 10 min at 4° C. […]
The expression of inducible nitric oxide synthase at the mRNA level was analyzed by Northern blot as described in our previous publication (Shan et al., 1994, supra). After an overnight culture, the mouse macrophages were harvested and their total cellular RNA was extracted with the guanidine/CsCl method. The RNA (10 μg/lane) was resolved in 1% agarose-formaldehyde gels and blotted onto nylon membranes. A 562-bp fragment corresponding to the mouse iNOS cDNA (Xie et al., 1992, Science 256:225) was obtained by reverse transcription/PCR using the mouse macrophages total RNA as templates. The fragment was labeled with ^32p with random primers and used as a probe for the Northern blot.

With `CC(=O)N[C@@H](CSC(=O)[C@]1([C@@H](O)C(C)C)NC(=O)[C@H](C)[C@@H]1O)C(=O)O` [LAC, lactacystin] the “decrease of viability compared with cells without LAC” value ([1]; 16 h culture) was less than 12%, the “decrease of viability compared with cells without LAC” value ([1]; 64 h culture) was “less than 27%” and the “viability (trypan blue exclusion)” value ([1]; PHA-stimulated T cells, 10 μM LAC added at beginning, 16 h) was 83%. The “viability (trypan blue exclusion)” value ([1]; PHA-stimulated T cells, 10 μM LAC added at beginning, 64 h) was 63%, the “viability of the LAC-treated cell” value ([1]; PHA, LAC 10 μM added once initially, at 40 h) was greater than 80% and the “viability of the treated cells” value ([1]; PHA, LAC added once at the beginning, at 16 h) was 83. The “change of viability (trypan blue exclusion)” value ([1]; activated T cells, LAC added 40 h after PHA, 9 h culture) was “did not change the viability significantly”, the “viability (trypan blue exclusion)” value ([1]; activated T cells, LAC added 40 h after PHA, additional 24 h culture) was 46% and the “viability (trypan blue exclusion)” value ([1]; resting T cells in medium, 10 μM LAC added at beginning, 16 h) was 92%. The “viability (trypan blue exclusion)” value ([1]; resting T cells in medium, 10 μM LAC added at beginning, 64 h) was 79%, the “viability (trypan blue exclusion)” value ([1]; resting T cells in medium, 24 h of LAC presence) was 87% and the “DNA breakdown (DNA laddering)” value ([2]; activated T cells (40 h post PHA), LAC for additional 9 h) was “clear DNA ladders”. For the same molecule, the “DNA breakdown (DNA laddering)” value ([2]; resting T cells, 10 μM LAC, 24 h) was “no apparent DNA breakdown”, the “cyclin A level during the S phase” value [3] was “did not affect the level” and the aggregate formation [4] was “effectively block the aggregate formation”. For the same molecule, the “expression of mRNA for NO synthase” value [5] was “decreases the expression of mRNA for NO synthase”.
